From patent US20090275557A1, “Novel Composition for Treatment of Diseases Related to Activated Lymphocytes” (Immune Control, Inc., priority 2008, published 2009)
“And” between values parts separate entries of the source, which are not always exact repeats. Identical values can stand only once. Like-named read-outs stand apart in the source and are kept apart here.

Experiments:
[1] = Pharmacokinetic study, oral gavage in fasted male Sprague-Dawley rats; type: in vivo, rat; details: for dose absorbed after oral dosing: indirectly indicated by the average bioavailability, oral 10 mg/kg
Protocol: ICI-1259 and ICI-1260 were supplied as powders and stored frozen until used. Dosing solutions in phosphate buffered saline were prepared at 1 mg/ml. These solutions were then evaluated in fasted male Sprague-Dawley rats. The rats were fitted with a jugular vein cannula for blood sampling. Rats were also fitted with an additional jugular vein cannula, or intradudodenal cannula as needed. Rats were given a commercial rodent diet ad libitum prior to study initiation. Food was then withheld from the animals for a minimum of twelve hours prior to dosing, until four hours postdose when food was returned. Water was supplied ad libitum. Three rats were used in each study, unless otherwise indicated.
For both ICI-1259 and ICI-1260, rats were given a 10 mg/kg dose from a 1 mg/ml solution. The appropriate volume of solution was given as a single bolus dose at time zero on the day of dosing. Blood samples were taken at predose, 5 minutes after dosing, 10 minutes after dosing, 15 minutes after dosing, 30 minutes after dosing, 1 hour after dosing, 2 hours after dosing, 4 hours after dosing, 6 hours after dosing, and 8 hours after dosing.

[2] = tested on: bovine type 2 collagen immunized female Lewis rats; experiment: Collagen-induced arthritis assay, oral gavage treatment, ankle diameter; type: in vivo, rat
Protocol: Female Lewis rats (CR) weighing between 125-200 g were immunized with bovine type 2 collagen, 2 mg/ml in a 1:1 solution of 0.01 N acetic acid and Freund's incomplete adjuvant (“FIA”). A 0.1 ml portion of the collagen solution was injected id (intradermally) at three sites on the rat. Rats were immunized with the collagen solution on days 1 and 6 of the study. […] On day 9 (study day “0”), baseline ankle diameters were measured. On days 10-15 (study days 1-6), the rats were then treated, via oral gavage, with either 1, 5, or 25 mg/kg of one of ICI-1259 or ICI-1260, prepared as described below. Ankle diameter measurements were measured on each of days 10-16.
Separate solutions of ICI-1259 and ICI-1260 were prepared in Dulbecco's PBS (pH 7) (“vehicle”) at 1 mg/ml. Control animals, who had not been immunized, were given vehicle without any compound. In a further control, immunized rats were given vehicle without ICI-1259 or ICI-1260. In still another control, immunized rats were treated with Enbrel™ at 10 mg/kg.

[3] = individual rats, oral gavage 10 mg/kg, 10 mg/kg
[4] = individual rats, oral gavage 10 mg/kg, 0.25 hr, 10 mg/kg
[5] = individual rats, oral gavage 10 mg/kg, 0.50 hr, 10 mg/kg
[6] = individual rats, oral gavage 10 mg/kg, 1.0 hr, 10 mg/kg
[7] = individual rats, oral gavage 10 mg/kg, 2.0 hr, 10 mg/kg
[8] = individual rats, oral gavage 10 mg/kg, 4.0 hr, 10 mg/kg
[9] = individual rats, oral gavage 10 mg/kg, 6.0 hr, 10 mg/kg
[10] = individual rats, oral gavage 10 mg/kg, 8.0 hr, 10 mg/kg
[11] = individual rats, oral gavage 10 mg/kg, dose normalized AUC divided by average intravenous AUC, 10 mg/kg
[12] = male, Sprague-Dawley, rat, plasma, po, 10 mg/kg, individual rats, oral gavage 10 mg/kg
[13] = male, Sprague-Dawley, rat, plasma, po, 10 mg/kg, individual rats, oral gavage 10 mg/kg, 2.0 hr
[14] = male, Sprague-Dawley, rat, plasma, po, 10 mg/kg, individual rats, oral gavage 10 mg/kg, 8.0 hr
[15] = male, Sprague-Dawley, rat, plasma, po, 10 mg/kg, individual rats, oral gavage 10 mg/kg, dose normalized AUC divided by average intravenous AUC, read-out: Bioavailability
[16] = male, Sprague-Dawley, rat, plasma, po, 10 mg/kg, individual rats, oral gavage 10 mg/kg, read-out: Cmax
[17] = male, Sprague-Dawley, rat, plasma, po, 10 mg/kg, individual rats, oral gavage 10 mg/kg, read-out: tmax
[18] = male, Sprague-Dawley, rat, plasma, po, 10 mg/kg, mean (average), oral gavage 10 mg/kg, read-out: Bioavailability
[19] = male, Sprague-Dawley, rat, plasma, po, 10 mg/kg, mean, oral gavage 10 mg/kg
[20] = male, Sprague-Dawley, rat, plasma, po, 10 mg/kg, mean, oral gavage 10 mg/kg, 0.25 hr
[21] = male, Sprague-Dawley, rat, plasma, po, 10 mg/kg, mean, oral gavage 10 mg/kg, 0.50 hr
[22] = male, Sprague-Dawley, rat, plasma, po, 10 mg/kg, mean, oral gavage 10 mg/kg, 1.0 hr
[23] = male, Sprague-Dawley, rat, plasma, po, 10 mg/kg, mean, oral gavage 10 mg/kg, 2.0 hr
[24] = male, Sprague-Dawley, rat, plasma, po, 10 mg/kg, mean, oral gavage 10 mg/kg, 4.0 hr
[25] = male, Sprague-Dawley, rat, plasma, po, 10 mg/kg, mean, oral gavage 10 mg/kg, 6.0 hr
[26] = male, Sprague-Dawley, rat, plasma, po, 10 mg/kg, mean, oral gavage 10 mg/kg, 8.0 hr
[27] = male, Sprague-Dawley, rat, plasma, po, 10 mg/kg, mean, oral gavage 10 mg/kg, read-out: Cmax
[28] = male, Sprague-Dawley, rat, plasma, po, 10 mg/kg, mean, oral gavage 10 mg/kg, read-out: tmax

## CNCC(=O)NCCCN1CCC(CCCN2c3ccccc3Sc3ccc(C(F)(F)F)cc32)CC1 [ICI-1259, 2-(methylamino)-N-(3-(4-(3-(2-(trifluoromethyl)-10H-phenothiazin-10-yl)propyl)piperidin-1-yl)propyl)acetamide]
[1]
  dose absorbed after oral dosing: approximately 38%
[1]; [3]
  AUClast: 98.7 ng·h/mL and 74.2 ng·h/mL
  Cmax: 28.4 ng/mL and 24.3 ng/mL
  Dose Normalized AUClast: 6.52 kg·ng·h/mL/mg and 9.87 kg·ng·h/mL/mg and 7.42 kg·ng·h/mL/mg
[1]; individual rats, oral gavage 10 mg/kg, 0.083 hr, BLOQ = below limit of quantitation (1 ng/mL)
  Plasma concentration: BLOQ
[1]; [4]
  Plasma concentration: 1.10 ng/mL and 3.38 ng/mL and 4.62 ng/mL
[1]; [5]
  Plasma concentration: 1.56 ng/mL and 3.45 ng/mL and 5.39 ng/mL
[1]; [6]
  Plasma concentration: 5.21 ng/mL and 17.6 ng/mL and 4.81 ng/mL
[1]; [7]
  Plasma concentration: 28.4 ng/mL and 24.3 ng/mL
[1]; [8]
  Plasma concentration: 7.49 ng/mL and 7.34 ng/mL
[1]; [9]
  Plasma concentration: 10.8 ng/mL and 6.73 ng/mL
[1]; [10]
  Plasma concentration: 4.35 ng/mL and 3.04 ng/mL
[1]; [11]
  bioavailability: 17% and 13%
[1]; [12]
  AUC(0-t): 65.2 ng·h/mL
[1]; [13]
  concentration at 2 hr: 16.6 ng/mL
[1]; male, Sprague-Dawley, rat, plasma, po, 10 mg/kg, individual rats, oral gavage 10 mg/kg, 4.0 hr
  concentration at 4 hr: 8.31 ng/mL
[1]; male, Sprague-Dawley, rat, plasma, po, 10 mg/kg, individual rats, oral gavage 10 mg/kg, 6.0 hr
  concentration at 6 hr: 7.85 ng/mL
[1]; [14]
  concentration at 8 hr: 3.28 ng/mL
[1]; [15]
  bioavailability: 11%
[1]; [16]
  Cmax: 16.6 ng/mL
[1]; [17]
  Tmax: 2 h
[1]; [18]
  bioavailability: 14%
[1]; [19]
  AUC(0-t): 79.4 ng·h/mL
[1]; [20]
  concentration at 0.25 hr: 3.03 ng/mL
[1]; [21]
  concentration at 0.5 hr: 3.47 ng/mL
[1]; [22]
  concentration at 1 hr: 9.21 ng/mL
[1]; [23]
  concentration at 2 hr: 23.1 ng/mL
[1]; [24]
  concentration at 4 hr: 7.71 ng/mL
[1]; [25]
  concentration at 6 hr: 8.46 ng/mL
[1]; [26]
  concentration at 8 hr: 3.56 ng/mL
[1]; [27]
  Cmax: 23.1 ng/mL
[1]; [28]
  Tmax: 2 h
[1]; mean, oral gavage 10 mg/kg
  Dose Normalized AUClast: 7.94 kg·ng·h/mL/mg
[2]; oral 25 mg/kg, study days 5-7
  reduction in ankle swelling: statistically significant reduction in ankle swelling

## NCC(=O)NCCCN1CCC(CCCN2c3ccccc3Sc3ccc(C(F)(F)F)cc32)CC1 [ICI-1260, 2-amino-N-(3-(4-(3-(2-(trifluoromethyl)-10H-phenothiazin-10-yl)propyl)piperidin-1-yl)propyl)acetamide]
[1]
  dose absorbed after oral dosing: approximately 26%
[1]; [3]
  AUClast: 84.9 ng·h/mL and 95.9 ng·h/mL
  Cmax: 22.2 ng/mL and 25.9 ng/mL
  Dose Normalized AUClast: 11.2 kg·ng·h/mL/mg and 8.49 kg·ng·h/mL/mg and 9.59 kg·ng·h/mL/mg
  Dose Normalized AUC∞: 9.40 kg·ng·h/mL/mg and 11.1 kg·ng·h/mL/mg
  Tmax: 1.0 h
  t1/2: 2.6 h
[1]; individual rats, oral gavage 10 mg/kg, 0.083 hr, BLOQ = below limit of quantitation (1 ng/mL), 10 mg/kg
  Plasma concentration: 1.33 ng/mL and BLOQ
[1]; [4]
  Plasma concentration: 9.32 ng/mL and 2.68 ng/mL and 7.31 ng/mL
[1]; [5]
  Plasma concentration: 8.00 ng/mL and 3.02 ng/mL and 6.16 ng/mL
[1]; [6]
  Plasma concentration: 5.33 ng/mL and 5.38 ng/mL and 25.9 ng/mL
[1]; [7]
  Plasma concentration: 22.2 ng/mL and 24.0 ng/mL
[1]; [8]
  Plasma concentration: 4.89 ng/mL and 11.7 ng/mL and 7.39 ng/mL
[1]; [9]
  Plasma concentration: 19.8 ng/mL and 9.71 ng/mL and 8.98 ng/mL
[1]; [10]
  Plasma concentration: 2.87 ng/mL and 3.93 ng/mL
[1]; [11]
  bioavailability: 9.0%
[1]; individual rats, oral gavage 10 mg/kg, extrapolated to infinity, 10 mg/kg
  AUC∞: 111 ng·h/mL
[1]; [12]
  AUC(0-t): 112 ng·h/mL
  half-life: 2.2 h
[1]; male, Sprague-Dawley, rat, plasma, po, 10 mg/kg, individual rats, oral gavage 10 mg/kg, 0.083 hr, BLOQ = below limit of quantitation (1 ng/mL)
  concentration at 0.083 hr: 1.48 ng/mL
[1]; [13]
  concentration at 2 hr: 33.8 ng/mL
[1]; [14]
  concentration at 8 hr: 3.13 ng/mL
[1]; [15]
  bioavailability: 13%
[1]; male, Sprague-Dawley, rat, plasma, po, 10 mg/kg, individual rats, oral gavage 10 mg/kg, extrapolated to infinity
  AUC(0-inf): 94 ng·h/mL
[1]; [16]
  Cmax: 33.8 ng/mL
[1]; [17]
  Tmax: 2 h
[1]; [18]
  bioavailability: 11%
[1]; [19]
  AUC(0-t): 97.7 ng·h/mL
  half-life: 2.4 h
[1]; male, Sprague-Dawley, rat, plasma, po, 10 mg/kg, mean, oral gavage 10 mg/kg, 0.083 hr
  concentration at 0.083 hr: 1.41 ng/mL
[1]; [20]
  concentration at 0.25 hr: 6.44 ng/mL
[1]; [21]
  concentration at 0.5 hr: 5.73 ng/mL
[1]; [22]
  concentration at 1 hr: 12.2 ng/mL
[1]; [23]
  concentration at 2 hr: 26.7 ng/mL
[1]; [24]
  concentration at 4 hr: 7.99 ng/mL
[1]; [25]
  concentration at 6 hr: 12.8 ng/mL
[1]; [26]
  concentration at 8 hr: 3.31 ng/mL
[1]; male, Sprague-Dawley, rat, plasma, po, 10 mg/kg, mean, oral gavage 10 mg/kg, extrapolated to infinity
  AUC(0-inf): 102 ng·h/mL
[1]; [27]
  Cmax: 27.3 ng/mL
[1]; [28]
  Tmax: 1.7 h
[1]; mean, oral gavage 10 mg/kg
  Dose Normalized AUClast: 9.77 kg·ng·h/mL/mg
  Dose Normalized AUC∞: 10.2 kg·ng·h/mL/mg
[2]; oral 5 mg/kg, larger standard errors at each dose
  reduction in ankle swelling: showed a reduction in ankle swelling
[2]; oral 25 mg/kg, larger standard errors at each dose
  reduction in ankle swelling: showed a reduction in ankle swelling
